Laboratory results reported in US10604739B2, “Cardiomyocyte production” (Cellular Dynamics International, Inc., priority 2009, dated 2020).

Assays:
Assay type in all cases: cell-based, human
IPS 6.1 cells = assay: Effect of different concentrations of H1152 on cell survival; conditions: one day dose, FIG. 28
Experimental: FIG. 28: Effect of different concentrations of H1152 on cell survival with one day dose of H1152 on IPS 6.1 cells.
Effect of different concentrations of H1152 was also tested on cell survival with one day dose of H1152 on IPS 6.1 cells (FIG. 28).

iPS cells [1] = assay: H1152 duration and aggregate formation, Experiment 1: cardiomyocyte differentiation; design: Average Cardiomyocyte Yield: unit not given here; conditions: for Average # cTnT Cells/Liter (in millions) / Average % Troponin T+ / Average Cardiomyocyte Yield / Average Cell Count per flask (in millions) / Average ratio iPS to CM: day 14, T25
Experimental: (§1) The purpose of this Example was to see the effect of 1 day or 2 day treatment with the compound on Cardiomyocyte development. Initial testing with H1152 included the compound in the media: 1 μM on day one with the TeSR media and 0.5 μM on day 2 with the compound in the aggregate transition media. After adopting a new method which included the H1152 compound for 1 day at 1 μM only, there appeared to be a loss of efficiency with the initial cell survival, resulting in this study to determine if extended H1152 would increase cell survival without a negative impact on […]. Cardiomyocyte differentiation conditions and experimental parameters were summarized in Tables 11-12 and 13-14 for Experiments 1 and 2, respectively. Critical reagents and materials were obtained as described in the previous example.

iPS cells [2] = assay: H1152 duration and aggregate formation, Experiment 2: cardiomyocyte differentiation; design: Average Cardiomyocyte Yield: unit not given here; conditions: for Average # cTnT Cells/Liter (in millions) / Average % Troponin T+ / Average Cardiomyocyte Yield / Average Cell Count per flask (in millions) / Average ratio iPS to CM: day 14, T25
Experimental: as §1

[3] = 3e5 cells/ml seeding, H1152 1 μM 24 hour exposure
[4] = 3e5 cells/ml seeding, H1152 1 μM 48 hour exposure
[5] = 5e5 cells/ml seeding, H1152 1 μM 24 hour exposure
[6] = 5e5 cells/ml seeding, H1152 1 μM 48 hour exposure
[7] = 7e5 cells/ml seeding, H1152 1 μM 24 hour exposure
[8] = 7e5 cells/ml seeding, H1152 1 μM 48 hour exposure
[9] = 10e5 cells/ml seeding, H1152 1 μM 24 hour exposure
[10] = 10e5 cells/ml seeding, H1152 1 μM 48 hour exposure
[11] = 15e5 cells/ml seeding, H1152 1 μM 24 hour exposure
[12] = 15e5 cells/ml seeding, H1152 1 μM 48 hour exposure

## Cc1cncc2cccc(S(=O)(=O)N3CCCNC[C@@H]3C)c12 [H1152]
IPS 6.1 cells
  Optimal concentration for aggregate formation: 1 µM
iPS cells [1]; [3]
  Average # cTnT Cells/Liter (in millions): 2.91 ± 1.27 millions
  Average % Troponin T+: 6.83 ± 0.26%
  Average Cardiomyocyte Yield: 17445 ± 7677
  Average Cell Count per flask (in millions): 0.25 ± 0.11 millions
  Average ratio iPS to CM: 99 ± 45
iPS cells [1]; [4]
  Average # cTnT Cells/Liter (in millions): 9.92 ± 0.25 millions
  Average % Troponin T+: 4.40 ± 1.00%
  Average Cardiomyocyte Yield: 59575 ± 1514
  Average Cell Count per flask (in millions): 1.39 ± 0.28 millions
  Average ratio iPS to CM: 25 ± 1
iPS cells [1]; [5]
  Average # cTnT Cells/Liter (in millions): 3.02 ± 1.66 millions
  Average % Troponin T+: 6.26 ± 3.40%
  Average Cardiomyocyte Yield: 18123 ± 10004
  Average Cell Count per flask (in millions): 0.46 ± 0.48 millions
  Average ratio iPS to CM: 180 ± 119
iPS cells [1]; [6]
  Average # cTnT Cells/Liter (in millions): 19.52 ± 8.01 millions
  Average % Troponin T+: 3.37 ± 1.12%
  Average Cardiomyocyte Yield: 117137 ± 48094
  Average Cell Count per flask (in millions): 3.41 ± 0.47 millions
  Average ratio iPS to CM: 24 ± 11
iPS cells [1]; [7]
  Average # cTnT Cells/Liter (in millions): 6.54 ± 0.91 millions
  Average % Troponin T+: 5.41 ± 1.58%
  Average Cardiomyocyte Yield: 39272 ± 5494
  Average Cell Count per flask (in millions): 0.77 ± 0.29 millions
  Average ratio iPS to CM: 90 ± 12
iPS cells [1]; [8]
  Average # cTnT Cells/Liter (in millions): 11.71 ± 6.74 millions
  Average % Troponin T+: 2.23 ± 0.28%
  Average Cardiomyocyte Yield: 70299 ± 40479
  Average Cell Count per flask (in millions): 3.19 ± 1.81 millions
  Average ratio iPS to CM: 72 ± 58
iPS cells [1]; [9]
  Average # cTnT Cells/Liter (in millions): 8.53 ± 3.67 millions
  Average % Troponin T+: 3.29 ± 2.73%
  Average Cardiomyocyte Yield: 51174 ± 22025
  Average Cell Count per flask (in millions): 1.95 ± 0.91 millions
  Average ratio iPS to CM: 116 ± 66
iPS cells [1]; [10]
  Average # cTnT Cells/Liter (in millions): 37.33 ± 11.90 millions
  Average % Troponin T+: 4.70 ± 1.08%
  Average Cardiomyocyte Yield: 224015 ± 71410
  Average Cell Count per flask (in millions): 4.69 ± 0.64 millions
  Average ratio iPS to CM: 24 ± 9
iPS cells [1]; [11]
  Average # cTnT Cells/Liter (in millions): 13.35 ± 5.17 millions
  Average % Troponin T+: 2.05 ± 0.89%
  Average Cardiomyocyte Yield: 80131 ± 31034
  Average Cell Count per flask (in millions): 4.01 ± 0.46 millions
  Average ratio iPS to CM: 105 ± 43
iPS cells [1]; [12]
  Average # cTnT Cells/Liter (in millions): 49.87 ± 21.23 millions
  Average % Troponin T+: 4.84 ± 1.61%
  Average Cardiomyocyte Yield: 299246 ± 127411
  Average Cell Count per flask (in millions): 6.16 ± 1.31 millions
  Average ratio iPS to CM: 28 ± 10
iPS cells [1]; Experiment 1, each cell density condition, 14 days
  Effect of increasing H1152 exposure duration to 48 hours on cTnT yield: increased cTnT yield in each cell density condition
iPS cells [1]; two day treatment at 1 μM, each of the experiments
  Cell survival: significant increase in the cell survival
iPS cells [2]; [3]
  Average # cTnT Cells/Liter (in millions): 11.06 ± 9.07 millions
  Average % Troponin T+: 12.71 ± 1.72%
  Average Cardiomyocyte Yield: 66383 ± 54471
  Average Cell Count per flask (in millions): 0.57 ± 0.54 millions
  Average ratio iPS to CM: 33 ± 20
iPS cells [2]; [4]
  Average # cTnT Cells/Liter (in millions): 34.67 ± 15.81 millions
  Average % Troponin T+: 7.99 ± 2.24%
  Average Cardiomyocyte Yield: 208066 ± 94874
  Average Cell Count per flask (in millions): 2.52 ± 0.51 millions
  Average ratio iPS to CM: 8 ± 4
iPS cells [2]; [5]
  Average # cTnT Cells/Liter (in millions): 8.84 ± 6.01 millions
  Average % Troponin T+: 9.98 ± 2.40%
  Average Cardiomyocyte Yield: 53055 ± 36109
  Average Cell Count per flask (in millions): 0.52 ± 0.35 millions
  Average ratio iPS to CM: 67 ± 49
iPS cells [2]; [6]
  Average # cTnT Cells/Liter (in millions): 38.40 ± 23.14 millions
  Average % Troponin T+: 5.20 ± 3.33%
  Average Cardiomyocyte Yield: 230454 ± 138874
  Average Cell Count per flask (in millions): 4.56 ± 0.48 millions
  Average ratio iPS to CM: 14 ± 7
iPS cells [2]; [9]
  Average # cTnT Cells/Liter (in millions): 14.18 ± 7.34 millions
  Average % Troponin T+: 5.42 ± 1.08%
  Average Cardiomyocyte Yield: 85129 ± 44092
  Average Cell Count per flask (in millions): 1.54 ± 063 millions
  Average ratio iPS to CM: 72 ± 42
iPS cells [2]; [10]
  Average # cTnT Cells/Liter (in millions): 16.03 ± 13.63 millions
  Average % Troponin T+: 1.40 ± 1.45%
  Average Cardiomyocyte Yield: 96206 ± 81824
  Average Cell Count per flask (in millions): 7.84 ± 1.14 millions
  Average ratio iPS to CM: 77 ± 44
iPS cells [2]; [11]
  Average # cTnT Cells/Liter (in millions): 28.54 ± 10.83 millions
  Average % Troponin T+: 6.48 ± 2.42%
  Average Cardiomyocyte Yield: 171264 ± 65034
  Average Cell Count per flask (in millions): 2.63 ± 0.14 millions
  Average ratio iPS to CM: 48 ± 17
iPS cells [2]; [12]
  Average # cTnT Cells/Liter (in millions): 28.13 ± 30.17 millions
  Average % Troponin T+: 2.36 ± 2.03%
  Average Cardiomyocyte Yield: 168815 ± 181030
  Average Cell Count per flask (in millions): 6.16 ± 1.31 millions
  Average ratio iPS to CM: 97 ± 85
iPS cells [2]; Experiment 2, cultures initially seeded with 3e5 and 5e5 cells/mL, 14 days
  Effect of increasing H1152 exposure duration to 48 hours on cTnT yield: increased cTnT yield in the cultures initially seeded with 3e5 and 5e5 cells/mL
